# Experimental data as given in ChEMBL document CHEMBL1201862, “PubChem BioAssay data set” (2004).
#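 A five-concentration, 48-hour dose response in 96-well plates underlies each endpoint, interpolated linearly between surrounding concentrations. At the GI50, growth is halved.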 Active and inactive are the calls of the source. No stated cut-off is given here; in the data, active = GI50 up to about 1.1 µM and inactive = higher.
# Columns and labels:
# Assay in all cases: NCI anticancer screen, dose series, 48 h
# SK-MEL-2 = test system: SK-MEL-2
# EKVX = test system: EKVX
# HCT-15 = test system: HCT-15
# A549 = test system: A549
# SW-620 = test system: SW-620
# SNB-19 = test system: SNB-19
# SNB-75 = test system: SNB-75
# IGROV-1 = test system: IGROV-1
# Malme-3M = test system: Malme-3M
# MDA-MB-231 = test system: MDA-MB-231
# SF-295 = test system: SF-295
# T47D = test system: T47D
# MDA-MB-435 = test system: MDA-MB-435
# OVCAR-4 = test system: OVCAR-4
# OVCAR-3 = test system: OVCAR-3
# MDA-N = test system: MDA-N
# SF-539 = test system: SF-539
# ACHN = test system: ACHN
# HT-29 = test system: HT-29
# PC-3 = test system: PC-3
SMILES,GI50 (SK-MEL-2),GI50 (EKVX),GI50 (HCT-15),GI50 (A549),GI50 (SW-620),GI50 (SNB-19),GI50 (SNB-75),GI50 (IGROV-1),GI50 (Malme-3M),GI50 (MDA-MB-231),GI50 (SF-295),GI50 (T47D),GI50 (MDA-MB-435),GI50 (OVCAR-4),GI50 (OVCAR-3),GI50 (MDA-N),GI50 (SF-539),GI50 (ACHN),GI50 (HT-29),GI50 (PC-3)
CC(=O)Nc1ccc2c3c(cc(O)c2c1)N(C(=O)CCCCC(=O)N1CC(CCl)c2c1cc(O)c1cc(NC(C)=O)ccc21)CC3CCl (stereo unspecified),0.144 µM (active),2.38 µM (inactive),12.9 µM,0.147 µM (active),0.518 µM (active),0.0436 µM (active),< 0.0395 µM (active),0.352 µM (active),0.149 µM (active),0.29 µM (active),0.151 µM (active),0.0129 µM (active),0.186 µM (active),1.63 µM (inactive),0.209 µM (active),0.174 µM (active),0.0527 µM (active),0.0308 µM (active),0.301 µM (active),0.526 µM (active)
CCOC(=O)C1(Cc2ccc3c(c2)CCC3)Cc2cc3c(cc2C1=O)CCC3 (stereo unspecified),> 100 µM (inactive),97.5 µM (inactive),58.6 µM,44 µM (inactive),> 85.1 µM (inactive),> 100 µM (inactive),53.7 µM (inactive),> 100 µM (inactive),> 61.2 µM (inactive),48.4 µM (inactive),48.3 µM (inactive),14.2 µM (inactive),36.3 µM (inactive),52 µM (inactive),> 100 µM (inactive),41.4 µM (inactive),> 100 µM (inactive),> 69.8 µM (inactive),31.6 µM (inactive),16.1 µM (inactive)
c1ccc2c(c1)ccc1nc(-c3ccc4c(c3)OCO4)c3c(c12)CCCC3,23.2 µM (inactive),37.1 µM (inactive),6.07 µM,20.6 µM (inactive),29.2 µM (inactive),77.8 µM (inactive),31.1 µM (inactive),–,20.8 µM (inactive),4.48 µM (inactive),12.2 µM (inactive),11.3 µM (inactive),27.5 µM (inactive),13.6 µM (inactive),15.4 µM (inactive),37.9 µM (inactive),12.5 µM (inactive),20.8 µM (inactive),9.48 µM (inactive),8.75 µM (inactive)
O=C(c1cc(Cl)cc(Cl)c1)N(C(=S)OC12CC3CC(CC(C3)C1)C2)c1ccccc1,19.4 µM (inactive),21.8 µM (inactive),34.6 µM,42.7 µM (inactive),39.5 µM (inactive),45.6 µM (inactive),61 µM (inactive),–,49.7 µM (inactive),38.6 µM (inactive),34.5 µM (inactive),61.2 µM (inactive),42.2 µM (inactive),46.8 µM (inactive),45.3 µM (inactive),31.8 µM (inactive),40 µM (inactive),33.2 µM (inactive),39.4 µM (inactive),35.2 µM (inactive)
CC1(C)C2C=CC1(C)C1(CC2)OCCO1 (stereo unspecified),> 100 µM (inactive),–,> 100 µM,–,> 100 µM (inactive),> 100 µM (inactive),66.1 µM (inactive),> 100 µM (inactive),> 100 µM (inactive),> 100 µM (inactive),> 100 µM (inactive),> 100 µM (inactive),> 100 µM (inactive),> 100 µM (inactive),> 100 µM (inactive),> 100 µM (inactive),> 100 µM (inactive),> 100 µM (inactive),> 100 µM (inactive),> 100 µM (inactive)
Nc1nccc(NCC2(CO)CC(OCc3ccccc3)C2)n1 (stereo unspecified),> 100 µM (inactive),77.4 µM (inactive),> 100 µM,> 100 µM (inactive),> 100 µM (inactive),–,> 100 µM (inactive),> 100 µM (inactive),> 100 µM (inactive),> 100 µM (inactive),> 100 µM (inactive),7.98 µM (inactive),> 100 µM (inactive),48.3 µM (inactive),87.5 µM (inactive),> 100 µM (inactive),> 100 µM (inactive),> 100 µM (inactive),> 100 µM (inactive),> 100 µM (inactive)
Cc1n(-c2ccccc2)c2c([n+]1Cc1ccc([N+](=O)[O-])cc1)C(=O)c1ccccc1C2=O,1.48 µM (inactive),2.49 µM (inactive),9.12 µM,3.56 µM (inactive),2.12 µM (inactive),1.72 µM (inactive),3.69 µM (inactive),0.855 µM (active),1.67 µM (inactive),1.59 µM (inactive),5.45 µM (inactive),1.64 µM (inactive),1.74 µM (inactive),1.66 µM (inactive),0.182 µM (active),1.77 µM (inactive),1.97 µM (inactive),3.72 µM (inactive),2.38 µM (inactive),2.25 µM (inactive)
CCOC(=O)C(=CNc1ccc(F)c(F)c1)C(=O)OCC,> 100 µM (inactive),81.5 µM (inactive),88.3 µM,> 100 µM (inactive),> 100 µM (inactive),> 100 µM (inactive),> 100 µM (inactive),> 100 µM (inactive),> 100 µM (inactive),> 100 µM (inactive),–,69.7 µM (inactive),> 100 µM (inactive),95.3 µM (inactive),> 100 µM (inactive),93.1 µM (inactive),> 100 µM (inactive),> 100 µM (inactive),94 µM (inactive),67.6 µM (inactive)
O=C1c2ccccc2-c2ccc(/N=[N+](/[O-])c3ccc4c(c3)C(=O)c3ccccc3-4)cc21,> 100 µM (inactive),> 100 µM (inactive),> 100 µM,> 100 µM (inactive),> 100 µM (inactive),> 100 µM (inactive),> 100 µM (inactive),> 100 µM (inactive),> 100 µM (inactive),> 100 µM (inactive),> 100 µM (inactive),> 100 µM (inactive),> 100 µM (inactive),> 100 µM (inactive),> 100 µM (inactive),> 100 µM (inactive),–,> 100 µM (inactive),> 100 µM (inactive),> 100 µM (inactive)
COC(=O)C(CCSc1ccccc1)C(=O)OC,> 100 µM (inactive),> 100 µM (inactive),> 100 µM,> 100 µM (inactive),> 100 µM (inactive),–,> 100 µM (inactive),> 100 µM (inactive),10.8 µM (inactive),> 100 µM (inactive),> 100 µM (inactive),> 100 µM (inactive),> 100 µM (inactive),> 100 µM (inactive),> 100 µM (inactive),> 100 µM (inactive),> 100 µM (inactive),> 100 µM (inactive),> 100 µM (inactive),> 100 µM (inactive)
Cc1cc(C)c(C[C@H]2COC(=O)[C@]2(O)Cc2c(C)cc(C)cc2C)c(C)c1,23.1 µM (inactive),12.6 µM (inactive),17.3 µM,15.7 µM (inactive),20.9 µM (inactive),21.6 µM (inactive),19.4 µM (inactive),–,13.9 µM (inactive),16.7 µM (inactive),16.9 µM (inactive),4.67 µM (inactive),18.3 µM (inactive),12.9 µM (inactive),15 µM (inactive),19.8 µM (inactive),23.9 µM (inactive),18.2 µM (inactive),27.9 µM (inactive),15.1 µM (inactive)
O=c1ccn([C@@H]2C[C@H]2CO)c(=O)[nH]1,> 100 µM (inactive),> 100 µM (inactive),> 100 µM,> 100 µM (inactive),> 100 µM (inactive),> 100 µM (inactive),> 100 µM (inactive),> 100 µM (inactive),> 100 µM (inactive),> 100 µM (inactive),–,> 100 µM (inactive),> 100 µM (inactive),> 100 µM (inactive),–,> 100 µM (inactive),> 100 µM (inactive),> 100 µM (inactive),> 100 µM (inactive),> 100 µM (inactive)
NNC(=O)C1(NC(=O)c2ccccc2)C(c2ccccc2)C(c2ccccc2)=NN1c1ccccc1 (stereo unspecified),41.5 µM (inactive),42.3 µM (inactive),18.5 µM,43.5 µM (inactive),46.6 µM (inactive),66.2 µM (inactive),30.2 µM (inactive),34.9 µM (inactive),> 100 µM (inactive),66.8 µM (inactive),24.5 µM (inactive),23.1 µM (inactive),29.2 µM (inactive),12.8 µM (inactive),18.1 µM (inactive),24.2 µM (inactive),44.2 µM (inactive),35.5 µM (inactive),–,24.4 µM (inactive)
c1ccc(NNC2=NCCN2)cc1,> 100 µM (inactive),> 100 µM (inactive),> 100 µM,> 100 µM (inactive),> 100 µM (inactive),> 100 µM (inactive),> 100 µM (inactive),> 100 µM (inactive),–,> 100 µM (inactive),2.75 µM (inactive),> 100 µM (inactive),> 100 µM (inactive),> 100 µM (inactive),> 100 µM (inactive),> 100 µM (inactive),> 100 µM (inactive),> 100 µM (inactive),> 100 µM (inactive),> 100 µM (inactive)
CC(C)CC(N)C(=O)O (stereo unspecified),> 100 µM (inactive),–,> 100 µM,> 100 µM (inactive),> 100 µM (inactive),> 100 µM (inactive),> 100 µM (inactive),> 100 µM (inactive),> 100 µM (inactive),> 100 µM (inactive),> 100 µM (inactive),> 100 µM (inactive),> 100 µM (inactive),> 100 µM (inactive),> 100 µM (inactive),> 100 µM (inactive),> 100 µM (inactive),> 100 µM (inactive),> 100 µM (inactive),> 100 µM (inactive)
